Legend:
Assay type in all cases: in vivo
[1] = system: morningglory (Ipomoea coccinea); assay: Test B pre-/postemergence plant response; details: for Morningglory plant response rating (0 to 100 scale): 62 g ai/ha, 0 is no effect
How it was run: (§1)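 Ratings reflect visual comparison with untreated controls 13 to 15 days after application, from 0 (no effect) to 100 (complete control). Application was preemergence to seeded loam/sand soil or postemergence to 1- to 4-leaf plants, with compound in a non-phytotoxic, surfactant-containing solvent.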

[2] = system: bermudagrass (Cynodon dactylon); assay: Test B pre-/postemergence plant response; details: for Bermudagrass plant response rating (0 to 100 scale): 62 g ai/ha, 0 is no effect
How it was run: as §1

[3] = system: canarygrass (Phalaris minor); assay: Test B postemergence plant response; details: for Canarygrass plant response rating (0 to 100 scale): 62 g ai/ha, 0 is no effect
How it was run: (§2)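 Plants at the 1- to 4-leaf stage (2 to 18 cm tall), grown in pots of peat moss/vermiculite medium with wetting agent and starter nutrients, received postemergence applications of test chemicals. After 13 to 15 days in a greenhouse, injury was rated visually against untreated controls on a 0 (no effect) to 100 (complete control) scale.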

[4] = system: winter barley (Hordeum vulgare); assay: Test B postemergence plant response; details: for Barley plant response rating (0 to 100 scale): 62 g ai/ha, 0 is no effect
How it was run: as §2

[5] = system: chickweed (Stellaria media); assay: Test B postemergence plant response; details: for Chickweed plant response rating (0 to 100 scale): 62 g ai/ha, 0 is no effect
How it was run: as §2

[6] = system: windgrass (Apera spica-venti); assay: Test B postemergence plant response; details: for Windgrass plant response rating (0 to 100 scale): 62 g ai/ha, postemergence, 0 is no effect, 100 is complete control
How it was run: as §2

[7] = system: rice (Oryza sativa); assay: Test B flooded paddy test; details: for Rice plant response rating: Flood, 31 g ai/ha, scale 0 to 100 (0 no effect, 100 complete control)
How it was run: (§3)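 Flooded-pot test: water raised to 3 cm above soil when treating, compound put in the water, level unchanged thereafter. Plants were at 2 leaves. Readout after 13 to 15 days, visual, relative to controls; 0 signifies no effect and 100 complete control.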

[8] = system: umbrella sedge (Cyperus difformis); assay: Test B flooded paddy test; details: for Sedge, Umbrella plant response rating: Flood, 31 g ai/ha, scale 0 to 100 (0 no effect, 100 complete control)
How it was run: as §3

[9] = system: barnyardgrass (Echinochloa crus-galli); assay: Test B flooded paddy test; details: for Barnyardgrass plant response rating: Flood, 31 g ai/ha, scale 0 to 100 (0 no effect, 100 complete control)
How it was run: as §3

[10] = system: ducksalad (Heteranthera limosa); assay: Test B flooded paddy test; details: for Ducksalad plant response rating: Flood, 31 g ai/ha, scale 0 to 100 (0 no effect, 100 complete control)
How it was run: as §3

[11] = postemergence, 100 is complete control, 13 to 15 days
[12] = 31 g ai/ha, postemergence, scale 0 to 100, 0 is no effect, 100 is complete control
[13] = Postemergence, 125 g ai/ha, scale 0 to 100 (0 no effect, 100 complete control)
[14] = Postemergence, 250 g ai/ha, scale 0 to 100 (0 no effect, 100 complete control)
[15] = 250 g ai/ha, flooded paddy test, visual rating on 0 to 100 scale (0 no effect, 100 complete control) after 13 to 15 days
[16] = Flood (flooded paddy test), 62 g ai/ha, scale of 0 to 100 where 0 is no effect and 100 is complete control, 13 to 15 days
[17] = Flood (flooded paddy test), 125 g ai/ha, scale 0 to 100, 0 is no effect, 100 is complete control, 13 to 15 days

## O=C1CCCC(O)=C1C(=O)c1cnc(-c2ccccc2)n(C2CCCCC2)c1=O [Compound 128, 3-cyclohexyl-5-[(2-hydroxy-6-oxo-1-cyclohexen-1-yl)carbonyl]-2-phenyl-4(3H)-pyrimidinone]
[1]; [11]
  Morningglory plant response rating (0 to 100 scale): 80
[1]; Ipomoea, post-emergence, Postemergence, 31 g ai/ha, 0 to 100 scale (0 no effect, 100 complete control), read-out: Plant response rating, Morningglory
  pest or weed control at 31 g/ha: 80%
[1]; Ipomoea, post-emergence, Postemergence, 125 g ai/ha, scale 0 to 100 (0 no effect, 100 complete control), read-out: Plant response rating, Morningglory
  pest or weed control at 125 g/ha: 90%
[1]; Ipomoea, post-emergence, Postemergence, 250 g ai/ha, scale 0 to 100 (0 no effect, 100 complete control), 13 to 15 days, read-out: Plant response rating, Morningglory
  pest or weed control at 250 g/ha: 90%
[2]; [11]
  Bermudagrass plant response rating (0 to 100 scale): 85
[2]; Cynodon dactylon, post-emergence, Postemergence, 31 g ai/ha, 0 to 100 scale (0 no effect, 100 complete control), read-out: Plant response rating, Bermudagrass
  pest or weed control at 31 g/ha: 75%
[2]; Cynodon dactylon, post-emergence, Postemergence, 125 g ai/ha, scale 0 to 100 (0 no effect, 100 complete control), read-out: Plant response rating, Bermudagrass
  pest or weed control at 125 g/ha: 98%
[2]; Cynodon dactylon, post-emergence, Postemergence, 250 g ai/ha, scale 0 to 100 (0 no effect, 100 complete control), 13 to 15 days, read-out: Plant response rating, Bermudagrass
  pest or weed control at 250 g/ha: 100%
[3]; [11]
  Canarygrass plant response rating (0 to 100 scale): 10
[3]; Phalaris minor, post-emergence, 360 h, Postemergence, 31 g ai/ha, 0 to 100 scale (0 no effect, 100 complete control), read-out: Plant response rating, Canarygrass
  pest or weed control at 31 g/ha: 10%
[3]; Phalaris minor, post-emergence, 360 h, Postemergence, 125 g ai/ha, scale 0 to 100 (0 no effect, 100 complete control), read-out: Plant response rating, Canarygrass
  pest or weed control at 125 g/ha: 30%
[3]; Phalaris minor, post-emergence, 360 h, Postemergence, 250 g ai/ha, scale 0 to 100 (0 no effect, 100 complete control), 13 to 15 days, read-out: Plant response rating, Canarygrass
  pest or weed control at 250 g/ha: 30%
[4]; [11]
  Barley plant response rating (0 to 100 scale): 0
[4]; Hordeum vulgare, post-emergence, Postemergence, 31 g ai/ha, 0 to 100 scale (0 no effect, 100 complete control), read-out: Plant response rating, Barley
  plant injury at 31 g/ha: 0%
[4]; Hordeum vulgare, post-emergence, Postemergence, 125 g ai/ha, scale 0 to 100 (0 no effect, 100 complete control), read-out: Plant response rating, Barley
  plant injury at 125 g/ha: 0%
[4]; Hordeum vulgare, post-emergence, Postemergence, 250 g ai/ha, scale 0 to 100 (0 no effect, 100 complete control), 13 to 15 days, read-out: Plant response rating, Barley
  plant injury at 250 g/ha: 5%
[5]; [11]
  Chickweed plant response rating (0 to 100 scale): 90
[5]; Stellaria media, post-emergence, 360 h, Postemergence, 31 g ai/ha, 0 to 100 scale (0 no effect, 100 complete control), read-out: Plant response rating, Chickweed
  pest or weed control at 31 g/ha: 90%
[5]; Stellaria media, post-emergence, 360 h, Postemergence, 125 g ai/ha, scale 0 to 100 (0 no effect, 100 complete control), read-out: Plant response rating, Chickweed
  pest or weed control at 125 g/ha: 95%
[5]; Stellaria media, post-emergence, 360 h, Postemergence, 250 g ai/ha, scale 0 to 100 (0 no effect, 100 complete control), 13 to 15 days, read-out: Plant response rating, Chickweed
  pest or weed control at 250 g/ha: 100%
[6]; 13 to 15 days
  Windgrass plant response rating (0 to 100 scale): 65
[6]; Apera spica-venti, post-emergence, 360 h, Postemergence, 31 g ai/ha, 0 to 100 scale (0 no effect, 100 complete control), read-out: Plant response rating, Windgrass
  pest or weed control at 31 g/ha: 50%
[6]; Apera spica-venti, post-emergence, 360 h, Postemergence, 125 g ai/ha, scale 0 to 100 (0 no effect, 100 complete control), read-out: Plant response rating, Windgrass
  pest or weed control at 125 g/ha: 70%
[6]; Apera spica-venti, post-emergence, 360 h, Postemergence, 250 g ai/ha, scale 0 to 100 (0 no effect, 100 complete control), 13 to 15 days, read-out: Plant response rating, Windgrass
  pest or weed control at 250 g/ha: 85%
[7]
  Rice plant response rating: 0
[7]; Oryza sativa, 250 g ai/ha, flooded paddy test, visual rating on 0 to 100 scale (0 no effect, 100 complete control) after 13 to 15 days, read-out: Plant response rating, Flood, Rice
  plant injury at 250 g/ha: 35%
[7]; Oryza sativa, Flood (flooded paddy test), 62 g ai/ha, scale of 0 to 100 where 0 is no effect and 100 is complete control, 13 to 15 days, read-out: Plant response rating, Rice
  plant injury at 62 g/ha: 0%
[7]; Oryza sativa, Flood (flooded paddy test), 125 g ai/ha, scale 0 to 100, 0 is no effect, 100 is complete control, 13 to 15 days, read-out: Plant response rating, Rice
  plant injury at 125 g/ha: 10%
[8]; Cyperus difformis, 360 h, 250 g ai/ha, flooded paddy test, visual rating on 0 to 100 scale (0 no effect, 100 complete control) after 13 to 15 days, read-out: Plant response rating, Flood, Sedge, Umbrella
  pest or weed control at 250 g/ha: 75%
[8]; Cyperus difformis, 360 h, Flood (flooded paddy test), 62 g ai/ha, scale of 0 to 100 where 0 is no effect and 100 is complete control, 13 to 15 days, read-out: Plant response rating, Sedge, Umbrella
  pest or weed control at 62 g/ha: 30%
[8]; Cyperus difformis, 360 h, Flood (flooded paddy test), 125 g ai/ha, scale 0 to 100, 0 is no effect, 100 is complete control, 13 to 15 days, read-out: Plant response rating, Sedge, Umbrella
  pest or weed control at 125 g/ha: 60%
[8]
  Sedge, Umbrella plant response rating: 0
[9]; Echinochloa crus-galli, 360 h, 250 g ai/ha, flooded paddy test, visual rating on 0 to 100 scale (0 no effect, 100 complete control) after 13 to 15 days, read-out: Plant response rating, Flood, Barnyardgrass
  pest or weed control at 250 g/ha: 40%
[9]; Echinochloa crus-galli, 360 h, Flood (flooded paddy test), 62 g ai/ha, scale of 0 to 100 where 0 is no effect and 100 is complete control, 13 to 15 days, read-out: Plant response rating, Barnyardgrass
  pest or weed control at 62 g/ha: 10%
[9]; Echinochloa crus-galli, 360 h, Flood (flooded paddy test), 125 g ai/ha, scale 0 to 100, 0 is no effect, 100 is complete control, 13 to 15 days, read-out: Plant response rating, Barnyardgrass
  pest or weed control at 125 g/ha: 15%
[9]
  Barnyardgrass plant response rating: 0
[10]
  Ducksalad plant response rating: 90
[10]; Heteranthera limosa, 360 h, 250 g ai/ha, flooded paddy test, visual rating on 0 to 100 scale (0 no effect, 100 complete control) after 13 to 15 days, read-out: Plant response rating, Flood, Ducksalad
  pest or weed control at 250 g/ha: 100%
[10]; Heteranthera limosa, 360 h, Flood (flooded paddy test), 62 g ai/ha, scale of 0 to 100 where 0 is no effect and 100 is complete control, 13 to 15 days, read-out: Plant response rating, Ducksalad
  pest or weed control at 62 g/ha: 95%
[10]; Heteranthera limosa, 360 h, Flood (flooded paddy test), 125 g ai/ha, scale 0 to 100, 0 is no effect, 100 is complete control, 13 to 15 days, read-out: Plant response rating, Ducksalad
  pest or weed control at 125 g/ha: 95%

## COCCn1c(-c2ccco2)ncc(C(=O)C2=C(O)CCCC2=O)c1=O [Compound 111]
[1]; [12]
  Plant response rating, Morningglory: 100
[1]; [11]
  Morningglory plant response rating (0 to 100 scale): 100
[1]; [13]
  Plant response rating, Morningglory: 100
[1]; [14]
  Plant response rating, Morningglory: 100
[2]; [12]
  Plant response rating, Bermudagrass: 95
[2]; [11]
  Bermudagrass plant response rating (0 to 100 scale): 100
[2]; [13]
  Plant response rating, Bermudagrass: 100
[2]; [14]
  Plant response rating, Bermudagrass: 100
[3]; [12]
  Plant response rating, Canarygrass: 0
[3]; [11]
  Canarygrass plant response rating (0 to 100 scale): 0
[3]; [13]
  Plant response rating, Canarygrass: 0
[3]; [14]
  Plant response rating, Canarygrass: 15
[4]; [12]
  Plant response rating, Barley: 0
[4]; [11]
  Barley plant response rating (0 to 100 scale): 0
[4]; [13]
  Plant response rating, Barley: 5
[4]; [14]
  Plant response rating, Barley: 30
[5]; [12]
  Plant response rating, Chickweed: 95
[5]; [11]
  Chickweed plant response rating (0 to 100 scale): 100
[5]; [13]
  Plant response rating, Chickweed: 100
[5]; [14]
  Plant response rating, Chickweed: 100
[6]; 13 to 15 days
  Windgrass plant response rating (0 to 100 scale): 30
[6]; [13]
  Plant response rating, Windgrass: 35
[7]; [15]
  Plant response rating, Flood, Rice: 30
[7]; [16]
  Plant response rating, Rice: 0
[7]; [17]
  Plant response rating, Rice: 0
[7]
  Rice plant response rating: 0
[8]; [15]
  Plant response rating, Flood, Sedge, Umbrella: 85
[8]; [16]
  Plant response rating, Sedge, Umbrella: 75
[8]; [17]
  Plant response rating, Sedge, Umbrella: 80
[8]
  Sedge, Umbrella plant response rating: 0
[9]; [15]
  Plant response rating, Flood, Barnyardgrass: 60
[9]; [16]
  Plant response rating, Barnyardgrass: 40
[9]; [17]
  Plant response rating, Barnyardgrass: 50
[9]
  Barnyardgrass plant response rating: 0
[10]; [15]
  Plant response rating, Flood, Ducksalad: 75
[10]; [16]
  Plant response rating, Ducksalad: 30
[10]; [17]
  Plant response rating, Ducksalad: 75
[10]
  Ducksalad plant response rating: 30

From patent US8952024B2, “Herbicidal pyrimidone derivatives” (E I du Pont de Nemours and Company, priority 2009, dated 2015)
